Results reported in US6448269B1 (Eli Lilly and Company, priority 1993, dated 2002).
pIC50: −log10 of the molar value. Structures can show the parent of a compound that is named as a salt.

System: human platelet-rich plasma
Assay: Platelet aggregation assay (Aggregation-Human PRP/ADP)
Assay type: cell-based
Conditions: 1 min; human platelet-rich plasma incubated with compound 1 minute at 37° C.; ADP-induced aggregation; read-out: Agg: Human PRP/ADP IC50uM
Protocol: Platelet-rich plasma was prepared from healthy human volunteers for use in determining inhibition of platelet aggregation by the compounds.
Platelet-rich plasma was prepared at room temperature by centrifugation of the citrated whole blood at 100×g for 12 minutes. The platelet rich plasma contained approximately 200-400,000 platelets/μl.
Platelet-poor plasma was prepared by centrifugation of citrated whole blood at 12,000×g for 2 minutes.
Platelet aggregation was assayed in a 4-channel platelet aggregation profiler (PAP-4, Biodata, Hatboro, Pa.) according to the manufacturers directions. Inhibition of platelet aggregation was studied by adding varying amounts of […] to stirred human platelet-rich plasma. Specifically, the human platelet-rich plasma was incubated with the compound being tested for 1 minute at 37° C. prior to the addition of a variety of aggregating agents most often ADP 5 μM, but also 1 μg/ml collagen, 1 μM U46619 and 0.3 μM platelet activating factor.

First: CCOC(=O)CC1CCc2cc(OCc3ccc(C(=N)N)cc3)ccc2O1 (racemic) [Example 45, Hydrochloride]
Second: CCCOC(=O)CC1CCc2cc(NC(=O)c3ccc(C(=N)N)cc3)ccc2O1 (racemic) [Example 86, hydrochloride]
The pIC50 of the first is 2.15 log units lower: 4.96 for the first, 7.11 for the second. The second is the more potent here.

First: NC(=O)c1ccc(C(=O)Nc2ccc3c(c2)CCC(CC(=O)O)O3)cc1 (racemic) [Example 49, rac-(6-(N-(4-Carbamoylbenzoyl)amino)-3,4-dihydro-2H-1-benzopyran-2-yl)acetic Acid]
Second: COC(=O)CC1CCc2cc(NC(=O)c3ccc(C(=N)N)cc3)ccc2O1 (racemic) [Example 87, Hydrochloride]
The pIC50 of the first is 3.08 log units lower: 4.00 for the first, 7.08 for the second.

Going from CCOC(=O)CCC1(C)C=Cc2cc(OCc3ccc(C(=N)N)cc3)ccc2O1 (racemic) [Example 52, Hydrochloride] to CCOC(=O)CCC1(C)CC(=O)c2cc(OCc3ccc(C(=N)N)cc3)ccc2O1 (racemic) [Example 66, Hydrochloride], the pIC50 falls from 4.00 to < 4.00.

Compared with O=C(O)CC1CCc2cc(OCCCCC3CCNCC3)ccc2O1 (racemic) [Example 54, rac-(3,4-Dihydro-6-(4-(piperidin-4-yl)butoxy)-2H-1-benzopyran-2-yl)acetic Acid Trifluoroacetate], CCOC(=O)CC1CCc2cc(NC(=O)/C=C/C3CCNCC3)ccc2O1 (racemic) [Example 77, Ethyl rac-(3,4-Dihydro-6-(N-(3-(piperidine-4-yl)propenoyl)amino)-2H-1-benzopyran-2-yl)acetate Trifluoroacetate] is 0.97 log units higher in pIC50: 4.92 for the first, 5.89 for the second.

First: CCOC(=O)CC1CCc2cc(NC(=O)c3ccc(C(=N)N)cc3Cl)ccc2C1=O (racemic) [Example 62, Hydrochloride]
Second: CCOC(=O)CC1CCc2cc(NC(=O)c3ccc(C(=N)N)cc3Cl)ccc2O1 (racemic) [Example 75, acetate Hydrochloride]
The pIC50 of the first is 0.57 log units lower: 5.17 for the first, 5.74 for the second. The second is the more potent here.

Compared with CC1(CCC(=O)O)CC(=O)c2cc(OCc3ccc(C(=N)N)cc3)ccc2O1 (racemic) [Example 67, Hydrochloride], N=C(N)NCc1ccc(COc2ccc3c(c2)CCN(CC(=O)O)C3=O)cc1 [Example 21, 6-[[4-(Guanidinomethyl)phenyl]methoxy]-3,4-dihydro-1-oxo-2(1H)-isoquinoline Acetic Acid Trifluoroacetate] is lower in pIC50: 4.54 for the first, < 4.00 for the second. The first is the more potent here.

CCOC(=O)CC1CC(C)(C)c2cc(NC(=O)c3ccc(C(=N)N)cc3)ccc2O1 (racemic) [Example 79, Hydrochloride] and CC1(C)CC(CC(=O)O)Oc2ccc(NC(=O)c3ccc(C(=N)N)cc3)cc21 (racemic) [Example 80, rac-(6-(N-(4-(Aminoiminomethyl)benzoyl)amino)-3,4-dihydro-4,4-dimethyl-2H-1-benzopyran-2-yl)acetic Acid] cannot be ordered by pIC50: < 4.00 for the first, < 4.00 for the second.

Compared with CCCNC(=N)c1ccc(C(=O)Nc2ccc3c(c2)CCC(CC(=O)OCC)O3)cc1 (racemic) [Example 81, Hydrochloride], CCCCNC(=N)c1ccc(C(=O)Nc2ccc3c(c2)CCC(CC(=O)OCC)O3)cc1 (racemic) [Example 83, Hydrochloride] is 0.44 log units higher in pIC50: 6.41 for the first, 6.85 for the second.

Compared with CCCOC(=O)NC(=N)c1ccc(C(=O)Nc2ccc3c(c2)CCC(CC(=O)OCC)O3)cc1 (racemic) [Example 85], CCOC(=O)CC1CCc2cc(NC(=O)c3ccc(C(=N)NCc4ccccc4)cc3)ccc2O1 (racemic) [Example 92, Ethyl rac-(3,4-Dihydro-6-(N-(4-(N′-(phenylmethylamino)iminomethyl)benzoyl)amino)-2H-1-benzopyran-2-yl)acetate Hydrochloride] is higher in pIC50: < 4.00 for the first, 6.62 for the second.

N=C(N)c1ccc(C(=O)Nc2ccc3c(c2)CCC(CC(=O)O)C3=O)cc1 (stereo not shown) [Example 30] was tested, and the pIC50 was 7.22.
